Test results published in patent EP4717275A1, “ANTI-LUNG CANCER COMBINED DRUG AND USE THEREOF” (Gunagdong Yinzhu Pharmaceutical Technology Co., Ltd, priority 2023, dated 2024).
Where “and” joins values, the source holds several entries; their conditions need not be identical. Equal entries are not always repeated. Where two headings read alike, the source gives them in different places.

How the values were obtained:
NCI-H2228 cell = test: CCK8 proliferation assay with combination index analysis; assay type: cell-based, human; conditions: CAI alone
Protocol: CCK8 method was used to evaluate the effect of the drugs towards proliferation of lung cancer cell line (NCI-H2228 cell). The cellular viability with different concentration of drug was assayed and the 50% inhibitory concentration was calculated.
Emerge NCI-H2228 cells (purchased from American Type Culture Collection (ATCC, Manassas, VA, USA)) from liquid nitrogen and thaw in a 37°C water bath. After thawing, culture cells in 1640 medium.
When cell density reached 90% confluence in culture medium, cells were digested with 0.25% trypsin and resuspended. After cell growth stabilized, cells in the logarithmic growth phase were harvested and counted using a cell counter and it was ensured that viability exceeded 85% for all cell lines.
Adjust cell concentration by diluting with culture medium. Add 100 µL of cell suspension to a 96-well plate to achieve a density of 3000 cells/well. Add 100 µL of PBS buffer to the wells around the cell-seeded wells.
Incubate the 96-well plate at 37°C, 5% CO2, and 95% humidity overnight.
Remove the cell culture plate from the incubator, aspirate the culture medium, and add the prepared drug-containing medium. Incubate at 37°C, 5% CO2, and 95% humidity for 72 hours.
Add 10 µL of CCK-8 solution to each well of the 96-well plate. Incubate the plate in the cell culture incubator for 1.5 hours. Measure the absorbance at 450 nm using a microplate reader.
Analyze data using GraphPad Prism 5.0 software. Fit the data using nonlinear S-curve regression to generate a dose-response curve and calculate the IC50 value. [formula]
The analysis of the combination index of the compound was performed using the median effect principle. The formula for the combination index of two compounds is: CI = (D)1/(Dx)1 + (D)2/(Dx)2 [formula]
Where: • (D)1---- The concentration of Compound 1 when compound 1 was used with another compound and the effect X was generated; • (D)2---- The concentration of Compound 2 when compound 2 was used with another compound and the effect X was generated; • (Dx)1---- The concentration of Compound 1 when compound 1 was used alone and the effect X was generated; • (Dx)2---- The concentration of Compound 2 when compound 2 was used alone and the effect X was generated.
The CI value enables quantitative assessment of the nature and strength of interactions between different compounds (Table 2). Interaction strength is measured using the weighted average CI (CIwt), calculated by the formula: CIwt = (CI50+2CI75+3CI90+4CI95)/10 [formula]
Where: • CI50 ---- CI value at EC50 (concentration achieving 50% effect) • CI75, CI90, and CI95 follow the same principle, representing the CI values at EC75, EC90, and EC95, respectively.
Evaluation of the combination effect: CI value is used to evaluate the combination effect, and the judgment method is shown in Table 7. Table 7 Judgment criteria of the results

[1] = Animal body weight, fatality and toxicity observation in the NCI-H2228 xenograft study; assay type: in vivo, BALB/c Nude mice; conditions: dead/total animals at Day 21; NCI-H2228 study; PO, QD×21
Description: BALB/c Nude mice, female, 8-10 weeks old, 18-20g. The variation of the body weight is ±20% around average body weight. 80 mice were inoculated and 60 mice were grouped.
The grouping day was designated as Day 0, and administration commenced according to animal body weight.
The same as the therapeutic effect evaluation experiments for Examples 1-2 and Comparative Examples 1-3.

NC(=O)c1nnn(Cc2cc(Cl)c(C(=O)c3ccc(Cl)cc3)c(Cl)c2)c1N [CAI, 5-Amino-1-[3,5-dichloro-4-(4-chlorobenzoyl chloride)benzyl]-1H-1,2,3-triazole-4-benzamide]
IC50 (NCI-H2228 cell; single plates 1-3, 72 hours, read-out: IC50 (CAI)): 22.9 µM and 23 µM
IC50 (NCI-H2228 cell; Homo sapiens, NCI-H2228, 72 h, average of 3 plates, read-out: IC50 (CAI)): 22.8 µM
IC50 (NCI-H2228 cell; Homo sapiens, NCI-H2228, 72 h, single plates 1-3, read-out: IC50 (CAI)): 22.4 µM
Fatality [1]: 0/10 (Day 21)
